Test results reported in patent US20080045477A1, “Series Of New 4,6-Diamino-1,2-Dihydro-1-Aryl-1,3,5-Triazines, Substituted By An Adamantyl Moiety In The Position 2 Of Triazine-Their Corresponding Salts, Isomers,Steroisomers, Enantiomers, Free Bases And The Complexes Of All The Above With Natural Macromolecules And Their Synthetic Derivatives” (priority 2001, published 2008).

melting point: 168 to 170 °C
Compound: NC1=NC(C23CC4CC(CC(C4)C2)C3)N(c2ccc(Cl)cc2)C(N)=N1 (stereo not shown) [Example free base, 4,6-Diamino-1,2-dihydro-1-(4-chlorophenyl)-2-(1-tricyclo[3.3.1.1^3,7]decyl)-1,3,5-triazine]
